Reference: publication PMC6588349 (eLife, 2019)
“Also recorded” adds a separate entry of the source. Where two headings read alike, the source gives them in different places.

Legend:
[1] = molecular target: T1, SNAP-mGluR2 (full-length) (Rattus norvegicus, UniProt P31421); test: Inter-LBD FRET assay with full-length SNAP-mGluR2; format: cell-based; conditions: saturating concentrations; for direct effect on inter-LBD FRET (no orthosteric agonist for modulators): drug applied alone; for effect on inter-LBD FRET response to DCG-IV: agonist DCG-IV
T1 construct: HEK 293T cells expressing full-length mGluR2; expressed in transfected cells; host or cells: HEK 293T
T1 sequence (P31421 19-872): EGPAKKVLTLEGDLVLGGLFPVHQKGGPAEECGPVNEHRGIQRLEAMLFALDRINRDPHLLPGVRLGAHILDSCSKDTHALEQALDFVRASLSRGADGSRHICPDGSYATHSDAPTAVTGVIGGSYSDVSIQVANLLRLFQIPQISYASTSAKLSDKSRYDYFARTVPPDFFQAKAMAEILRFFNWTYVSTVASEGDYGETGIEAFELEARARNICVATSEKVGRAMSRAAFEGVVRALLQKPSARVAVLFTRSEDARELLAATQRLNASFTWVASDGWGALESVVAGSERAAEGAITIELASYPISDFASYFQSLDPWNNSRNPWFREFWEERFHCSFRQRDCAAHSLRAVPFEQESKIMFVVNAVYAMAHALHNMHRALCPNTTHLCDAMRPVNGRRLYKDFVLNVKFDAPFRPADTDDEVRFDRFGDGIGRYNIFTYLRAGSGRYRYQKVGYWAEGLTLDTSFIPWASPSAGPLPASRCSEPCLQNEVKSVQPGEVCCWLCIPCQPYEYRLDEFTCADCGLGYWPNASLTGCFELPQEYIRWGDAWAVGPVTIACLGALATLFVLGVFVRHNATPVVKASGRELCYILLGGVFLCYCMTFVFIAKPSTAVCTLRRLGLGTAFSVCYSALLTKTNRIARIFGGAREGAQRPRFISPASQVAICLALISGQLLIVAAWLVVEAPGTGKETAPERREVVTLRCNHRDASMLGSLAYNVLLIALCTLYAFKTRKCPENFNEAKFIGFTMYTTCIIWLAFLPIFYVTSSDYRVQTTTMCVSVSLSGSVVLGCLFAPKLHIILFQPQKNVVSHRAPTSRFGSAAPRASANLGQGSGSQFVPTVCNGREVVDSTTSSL
Text: We next sought to further probe the variation in PAM-induced inter-TMD FRET changes. […] We used an inter-LBD FRET assay to assess the relative strength of allosteric modulation by different mGluR2 PAMs. Agonists induce a decrease in FRET between fluorophore-conjugated N-terminal SNAP- and CLIP-tags (Figure 4E). […] We tested this effect for all PAMs by applying a saturating concentration of DCG-IV followed by co-application of a saturating concentration of each PAM, which produced further FRET decreases (Figure 4F,G).
Fluorophores were diluted in EX solution, which was also used to wash coverslips following labeling and prior to mounting on the microscope. After labeling, cells were mounted on an inverted microscope (Olympus IX73) and imaged with a 60x objective. […] Clusters of cells were analyzed together using ImageJ and FRET was calculated as FRET=(IAcceptor)/(IDonor +IAcceptor) where I is fluorescence intensity. No corrections were made for bleed-through between channels or the contribution of donor-donor or acceptor-acceptor dimers as analysis was limited to relative FRET changes between drug treatments rather than absolute FRET values. […] FRET changes calculated for dose–response curves were normalized to the response to saturating […] applied within the same recording and dose–response curves were obtained from multiple cell clusters and averaged from at least three separate experiments. Dose–response curves were fit using Prism (Graphpad). All drugs were purchased from Tocris, prepared in EX solution, and delivered with a gravity-driven perfusion system. For kinetics measurements a pressurized perfusion system (Automate Scientific) was used to produce a flow rate of 0.5 mL/s. Kinetic analysis was performed in Microsoft Excel. The time between 10% and 90% FRET increase or decrease was determined manually. For photo-bleaching/donor-recovery experiments, images were taken in donor and acceptor channels at baseline and again followed by a 1 min exposure to 640 nm laser illumination at maximum intensity. All experiments were performed at room temperature. All data were produced from at least two separate transfections for each condition.

[2] = molecular target: T2, SNAP-mGluR2-TMD (Rattus norvegicus, UniProt P31421); test: Single-molecule pulldown (SiMPull) photobleaching step counting, SNAP-mGluR2-TMD; conditions: 10 µM LY48, 1 µM BINA, 10 µM Ro 64, 1 µM MNI 137
T2 construct: mGluR2-TMD (rat) starts at Q558; expressed in transfected cells; host or cells: HEK 293T
T2 sequence (P31421 558-872 limits assumed): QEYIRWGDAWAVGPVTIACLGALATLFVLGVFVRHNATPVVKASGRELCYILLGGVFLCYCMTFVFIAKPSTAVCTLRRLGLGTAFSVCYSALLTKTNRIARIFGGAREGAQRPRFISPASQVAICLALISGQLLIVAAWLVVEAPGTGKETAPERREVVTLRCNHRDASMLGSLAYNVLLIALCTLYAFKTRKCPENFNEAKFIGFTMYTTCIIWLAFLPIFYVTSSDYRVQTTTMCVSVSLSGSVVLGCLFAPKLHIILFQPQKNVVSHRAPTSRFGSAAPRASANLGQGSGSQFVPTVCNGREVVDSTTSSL
Text: Photobleaching step analysis of individual complexes allows for precise determination of receptor stoichiometry and, unlike FRET or BRET-based methods, this assay is not sensitive to conformation or relative fluorophore orientation. […] However, this work relied on GFP-tagged receptors which leads to a lysate that contains both surface-targeted and intracellular receptors, potentially including immature or partially degraded protein that can confound analysis.
To restrict our analysis to surface-targeted receptors, we expressed N-terminally SNAP-tagged receptor variants and labeled them with membrane-impermeable fluorophores.
To test this, we incubated SNAP-mGluR2-TMD expressing cells and lysates with PAMs or NAMs during the SiMPull experiment.
Briefly, to prevent non-specific sticking of proteins, flow chambers were prepared with mPEG-passivated glass slides and coverslips doped with ~1% biotinylated mPEG, as previously described. Prior to each experiment, chambers were incubated with 0.2 mg/mL NeutrAvidin (ThermoFisher) for 2 min followed by 10 nM of a biotinylated anti-HA antibody (abcam ab26228) for 20–30 min. After each conjugation step, the chambers were washed with T50 buffer (50 mM NaCl, 10 mM Tris, pH 7.5).
After labeling, cells were dissociated from coverslips by incubating with Ca^2+-free PBS for 20 min followed by gentle pipetting. […] Following 1 hr of lysis at 4°C, cells were centrifuged at 16,000 g for 20 min before the supernatant was collected and maintained on ice. The cell lysate was diluted in a 0.1% detergent dilution buffer to obtain sparse immobilization of labeled protein on the passivated slide. After obtaining an optimal density of immobilized protein, the flow chamber was washed with dilution buffer to remove unbound protein. For SiMPull experiments with PAMs and NAMs, drugs were added to cells during the dissociation step (after dye labeling), and maintained throughout the cell lysis and entire experiment.
Single molecules were imaged with a 100x objective on an inverted microscope (Olympus IX73) in total internal reflection fluorescence (TIRF) mode. Images were taken with an scMOS camera (Hamamatsu ORCA-Flash4v3.0) at 20 Hz with 50 ms exposures. […] Multiple independent experiments were performed for each condition. […] A SNAP-tag labeling efficiency of ~80% was used to calculate the proportion of dimers and monomers. Occasional co-localization of two proteins within a diffraction limited spot along with antibody and NeutrAvidin bivalency both make a small contribution to >1 step photobleaching, leading to a background % two-step bleaching level of ~5–10%. All data were produced from at least two separate transfections/protein preparations for each condition.

[3] = molecular target: T3, full-length mGluR2 (SNAP-mGluR2) (Rattus norvegicus, UniProt P31421); test: GIRK activation assay, whole cell patch clamp, HEK 293T cells expressing full-length mGluR2; format: cell-based; conditions: for effect on basal GIRK current in the absence of glutamate: NAM alone, HEK 293T cells expressing GIRK and full-length mGluR2
T3 construct: HEK 293T cells expressing full-length mGluR2; expressed in transfected cells; host or cells: HEK 293T
T3 sequence (P31421 19-872): as the sequence (P31421 19-872) above
Description: Cells were cultured in DMEM with 5% FBS on poly-L-lysine-coated glass coverslips. DNA plasmids were transfected into cells using Lipofectamine 3000 (Thermo Fisher). […] For single-molecule pulldown (SiMPull) experiments, cells were transfected with 0.7 μg DNA of HA and SNAP-tagged receptor constructs, unless otherwise noted.
Whole-cell patch clamp recordings from single isolated cells were performed 24–36 hr after transfection in a high-potassium extracellular solution containing (in mM): 120 KCl, 29 NaCl, 1 MgCl2, 2 CaCl2 and 10 HEPES, pH 7.4. Cells were voltage clamped to −60 mV using an Axopatch 200B amplifier (Axon Instruments) and membrane currents were recorded. Glass pipettes of resistance between 3 and 8 MΩ were filled with intracellular solution containing (in mM): 140 KCl, 10 HEPES, 3 Na2ATP, 0.2 Na2GTP, 5 EGTA and 3 MgCl2, pH 7.4. Data were acquired with a 2 kHz acquisition rate and filtered with the amplifier 4-pole Bessel filter at 1 kHz. Drugs were prepared in extracellular solution and applied using a gravity-driven perfusion system. Data were analyzed with Clampfit (Molecular Devices) and Prism (GraphPad). Data for all conditions came from at least two separate transfections.

| direct effect on inter-LBD FRET (no orthosteric agonist for modulators) [1] | higher order complexes with >3 bleaching steps in presence of drug [2] [%] | two-step photobleaching events of SNAP-mGluR2-TMD in presence of drug [2] | highest concentration that did not produce a GIRK response on its own ([3]; full-length mGluR2) [nM] | reversibility of GIRK currents after washout ([3]; full-length mGluR2, up to 10 min of washout) | EC50 ([3]; mGluR2-WT, read-out: GIRK activation EC50 (approximate)) [nM] | maximal PAM-induced GIRK activation relative to glutamate ([3]; mGluR2-WT, relative to saturating glutamate) | GIRK current time 10% to 90% ([3]; saturating: 10 µM LY48, 1 mM Glutamate) [s] | EC50 ([3]; wild-type SNAP-mGluR2, HEK 293T, PAM alone, normalized to saturating glutamate, mean ± s.e.m., read-out: GIRK activation EC50) [nM] | effect on inter-LBD FRET response to DCG-IV [1] | effect on basal GIRK current in the absence of glutamate [3] | effect of co-application on LY48-induced GIRK activation ([3]; co-applied with LY48, saturating concentration for LY341495) | Compound | effect on the glutamate-sensitivity of mGluR2 (GIRK) ([3]; 50 nM LY48) |
| --- | --- | --- | --- | --- | --- | --- | --- | --- | --- | --- | --- | --- | --- |
| did not alter the basal inter-LBD FRET | < 10 | 40–45% | – | – | – | – | – | – | partial antagonism | no effect on basal current | blocked | N#Cc1cc(C2=Nc3ccc(Br)cc3NC(=O)C2)ccn1 [MNI 137] | – |
| did not alter the basal inter-LBD FRET | < 10 | 40–45% | – | – | – | – | – | – | partial antagonism | small but clear outward current | – | Clc1cccc(Cl)c1/C(=C/n1cncn1)OC1CCCCCC1 [Ro 64] | – |

| Compound | direct effect on inter-LBD FRET (no orthosteric agonist for modulators) [1] | higher order complexes with >3 bleaching steps in presence of drug [2] [%] | two-step photobleaching events of SNAP-mGluR2-TMD in presence of drug [2] | highest concentration that did not produce a GIRK response on its own ([3]; full-length mGluR2) [nM] | reversibility of GIRK currents after washout ([3]; full-length mGluR2, up to 10 min of washout) | EC50 ([3]; mGluR2-WT, read-out: GIRK activation EC50 (approximate)) [nM] | maximal PAM-induced GIRK activation relative to glutamate ([3]; mGluR2-WT, relative to saturating glutamate) | GIRK current time 10% to 90% ([3]; saturating: 10 µM LY48, 1 mM Glutamate) [s] | EC50 ([3]; wild-type SNAP-mGluR2, HEK 293T, PAM alone, normalized to saturating glutamate, mean ± s.e.m., read-out: GIRK activation EC50) [nM] | effect on inter-LBD FRET response to DCG-IV [1] | effect on basal GIRK current in the absence of glutamate [3] | effect of co-application on LY48-induced GIRK activation ([3]; co-applied with LY48, saturating concentration for LY341495) | effect on the glutamate-sensitivity of mGluR2 (GIRK) ([3]; 50 nM LY48) |
| --- | --- | --- | --- | --- | --- | --- | --- | --- | --- | --- | --- | --- | --- |
| COc1ccccc1Oc1ccc(N(Cc2cccnc2)S(=O)(=O)CC(F)(F)F)cc1 [LY48] | no effect on FRET level; also recorded: unable to directly induce LBD closure | < 10 | 40–45% | 50 | fully-reversible currents | ~300 | ~ 70% | 14.3 ± 3.5 | 230 ± 40 | – | – | – | no effect on the glutamate-sensitivity of mGluR2 |
